Each structure is given as a SMILES string.

Assay [1] has as its target T1, p-PAK1(S144) (Rattus norvegicus, UniProt P35465).
T1 construct: endogenous in cells; host or cells: RT4-D6P2T
In words: In vitro p-PAK1(S144) cellular HTRF assay. The settings on record: cell line RT4-D6P2T, read-out: pPAK1(S144) IC50. The format is cell-based. The source says:
Compounds for treatment of cancer are subject to in vitro cellular HTRF assay for p-PAK1(S144). The cell line is RT4-D6P2T. The HTRF assay kits are obtained from Cisbio Bioassays, 135 South Road, Bedford, Mass. 01730, USA.
For orientation: TR-FRET usually uses a lanthanide donor and a delayed reading to cut background.

The target in assay [2] is PAK1 (Homo sapiens, UniProt Q13153). Put plainly: In vitro PAK inhibition assay (Z'-LYTE, SelectScreen Kinase Profiling). The format is biochemical. The method, then: (§1) Compounds are screened in 1% DMSO (final) in the well. For 10 point titrations, 3-fold serial dilutions are conducted. All Peptide/Kinase Mixtures are diluted to a 2× working concentration in the appropriate Kinase Buffer
The 2×PAK1/Ser/Thr 19 mixture is prepared in 50 mM HEPES pH 7.5, 0.01% BRIJ-35, 10 mM MgCl2, 1 mM EGTA.
(§2) Add the following solutions to a well in a 384-well plate: 2.5 μL of 4× Test Compound OR (100 nL 100× Test Compound plus 2.4 μL kinase buffer) • 5 μL of 2× Peptide/Kinase (PAK) Mixture • 2.5 μL of 4×ATP Solution • 2. Shake the plate for 30-seconds • 3. Incubate the PAK Kinase Reaction at room temperature for 60-minutes • 4. Add 5 μL of Development Reagent Solution to each well • 5. Shake the plate for 30-seconds • 6. Incubate the Development Reaction for 60-minutes • 7. Determine the fluorescence using a fluorescence plate reader • 8. Analyze the fluorescence data
(§3) SelectScreen® Kinase Profiling Service uses XLfit from IDBS.

Assay [3] has as its target PAK2 (PAK65) (Homo sapiens, UniProt Q13177). The assay is described as above. The format is biochemical. As for the experimental part: as §1
The 2×PAK2 (PAK65)/Ser/Thr 20 mixture is prepared in 50 mM HEPES pH 7.5, 0.01% BRIJ-35, 10 mM MgCl2, 1 mM EGTA. The final 10 μL Kinase Reaction consists of 0.29-6 ng PAK2 (PAK65) and 2 μM Ser/Thr 20 in 50 mM HEPES pH 7.5, 0.01% BRIJ-35, 10 mM MgCl2, 1 mM EGTA.
as §2, §3

In assay [4] the target is PAK3 (Homo sapiens, UniProt O75914). The assay is described as above. The format is biochemical. As for the experimental part: as §1
The 2×PAK3/Ser/Thr 20 mixture is prepared in 50 mM HEPES pH 7.5, 0.01% BRIJ-35, 10 mM MgCl2, 1 mM EGTA.
as §2, §3

For assay [5], the target named is PAK-4 (Homo sapiens, UniProt O96013). Described as above. The format is biochemical. The settings on record: read-out: PAK4 IC50. As for the experimental part:
as §1
The 2X PAK-4/Ser/Thr 20 mixture is prepared in 50 mM HEPES pH 7.5, 0.01% BRIJ-35, 10 mM MgCl2, 1 mM EGTA. The final 10 μL Kinase Reaction consists of 0.1-0.75 ng PAK-4 and 2 μM Ser/Thr 20 in 50 mM HEPES pH 7.5, 0.01% BRIJ-35, 10 mM MgCl2, 1 mM EGTA. After the 1 hour Kinase Reaction incubation, 5 μL of a 1:256 dilution of Development Reagent A is added.
as §2, with “Bar-coded Corning, low volume NBS, black 384-well plate (Corning Cat. #3676) • 1. Add the” for “Add the”
SelectScreen® Kinase Profiling Service uses XLfit from IDBS. The dose response curve is curve fit to model number 205 (sigmoidal dose-response model).

PAK3, sequence (O75914 whole entry): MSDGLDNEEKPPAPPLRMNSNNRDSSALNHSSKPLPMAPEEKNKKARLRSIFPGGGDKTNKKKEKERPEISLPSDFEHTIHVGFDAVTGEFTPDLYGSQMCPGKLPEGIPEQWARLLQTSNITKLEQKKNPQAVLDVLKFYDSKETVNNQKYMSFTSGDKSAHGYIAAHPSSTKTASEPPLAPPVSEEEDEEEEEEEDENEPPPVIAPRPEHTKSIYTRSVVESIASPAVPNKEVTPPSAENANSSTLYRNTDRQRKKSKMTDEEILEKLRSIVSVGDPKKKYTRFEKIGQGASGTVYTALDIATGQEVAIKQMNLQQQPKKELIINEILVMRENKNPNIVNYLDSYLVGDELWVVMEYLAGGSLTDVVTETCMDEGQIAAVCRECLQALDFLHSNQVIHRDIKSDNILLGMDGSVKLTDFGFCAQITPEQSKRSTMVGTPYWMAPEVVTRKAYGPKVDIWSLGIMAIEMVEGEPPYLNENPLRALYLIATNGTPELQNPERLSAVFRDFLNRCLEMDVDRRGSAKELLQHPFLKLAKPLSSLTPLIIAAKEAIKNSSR
PAK-4, sequence (O96013 whole entry): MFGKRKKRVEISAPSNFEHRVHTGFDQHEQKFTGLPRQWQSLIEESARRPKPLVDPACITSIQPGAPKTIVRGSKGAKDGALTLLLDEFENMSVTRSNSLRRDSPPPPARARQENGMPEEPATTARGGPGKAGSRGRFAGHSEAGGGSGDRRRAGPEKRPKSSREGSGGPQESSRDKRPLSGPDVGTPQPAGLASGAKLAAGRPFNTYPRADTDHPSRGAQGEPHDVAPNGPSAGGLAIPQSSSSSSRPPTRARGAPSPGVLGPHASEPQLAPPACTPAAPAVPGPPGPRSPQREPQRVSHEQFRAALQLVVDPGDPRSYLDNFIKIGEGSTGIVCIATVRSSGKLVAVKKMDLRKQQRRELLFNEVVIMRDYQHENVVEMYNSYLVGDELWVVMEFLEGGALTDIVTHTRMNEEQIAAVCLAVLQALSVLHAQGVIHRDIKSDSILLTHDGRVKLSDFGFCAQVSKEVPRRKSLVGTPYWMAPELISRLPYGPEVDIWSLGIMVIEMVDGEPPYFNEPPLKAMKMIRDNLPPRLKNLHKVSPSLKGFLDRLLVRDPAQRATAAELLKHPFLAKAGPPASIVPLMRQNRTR
PAK2 (PAK65), sequence (Q13177 whole entry): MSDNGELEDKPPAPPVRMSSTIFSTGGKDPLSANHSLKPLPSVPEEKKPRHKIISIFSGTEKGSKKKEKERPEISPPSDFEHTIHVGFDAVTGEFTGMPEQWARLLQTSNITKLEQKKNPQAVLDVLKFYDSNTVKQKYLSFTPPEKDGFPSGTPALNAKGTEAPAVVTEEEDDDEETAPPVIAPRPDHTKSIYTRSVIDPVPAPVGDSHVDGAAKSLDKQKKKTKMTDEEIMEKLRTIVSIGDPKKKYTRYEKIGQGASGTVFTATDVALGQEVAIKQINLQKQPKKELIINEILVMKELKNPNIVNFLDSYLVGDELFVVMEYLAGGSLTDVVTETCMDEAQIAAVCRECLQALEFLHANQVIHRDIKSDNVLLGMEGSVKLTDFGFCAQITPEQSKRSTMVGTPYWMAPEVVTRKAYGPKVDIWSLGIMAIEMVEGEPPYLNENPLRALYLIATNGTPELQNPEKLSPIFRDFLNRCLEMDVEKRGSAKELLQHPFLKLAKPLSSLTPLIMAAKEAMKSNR
PAK1, sequence (Q13153 whole entry): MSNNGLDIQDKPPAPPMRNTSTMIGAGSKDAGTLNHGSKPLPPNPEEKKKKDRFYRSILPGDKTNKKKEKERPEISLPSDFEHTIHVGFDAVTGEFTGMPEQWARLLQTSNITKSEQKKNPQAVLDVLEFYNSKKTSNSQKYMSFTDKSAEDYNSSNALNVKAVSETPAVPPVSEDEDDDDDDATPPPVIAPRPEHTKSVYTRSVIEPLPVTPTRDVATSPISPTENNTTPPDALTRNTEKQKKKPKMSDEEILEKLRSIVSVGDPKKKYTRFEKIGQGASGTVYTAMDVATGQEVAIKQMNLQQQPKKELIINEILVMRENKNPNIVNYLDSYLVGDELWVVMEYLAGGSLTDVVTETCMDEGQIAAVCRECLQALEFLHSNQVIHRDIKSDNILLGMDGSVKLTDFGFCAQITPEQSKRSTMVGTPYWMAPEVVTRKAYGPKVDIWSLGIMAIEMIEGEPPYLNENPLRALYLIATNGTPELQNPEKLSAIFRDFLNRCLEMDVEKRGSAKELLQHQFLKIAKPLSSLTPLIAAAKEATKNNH
T1 sequence (P35465 whole entry): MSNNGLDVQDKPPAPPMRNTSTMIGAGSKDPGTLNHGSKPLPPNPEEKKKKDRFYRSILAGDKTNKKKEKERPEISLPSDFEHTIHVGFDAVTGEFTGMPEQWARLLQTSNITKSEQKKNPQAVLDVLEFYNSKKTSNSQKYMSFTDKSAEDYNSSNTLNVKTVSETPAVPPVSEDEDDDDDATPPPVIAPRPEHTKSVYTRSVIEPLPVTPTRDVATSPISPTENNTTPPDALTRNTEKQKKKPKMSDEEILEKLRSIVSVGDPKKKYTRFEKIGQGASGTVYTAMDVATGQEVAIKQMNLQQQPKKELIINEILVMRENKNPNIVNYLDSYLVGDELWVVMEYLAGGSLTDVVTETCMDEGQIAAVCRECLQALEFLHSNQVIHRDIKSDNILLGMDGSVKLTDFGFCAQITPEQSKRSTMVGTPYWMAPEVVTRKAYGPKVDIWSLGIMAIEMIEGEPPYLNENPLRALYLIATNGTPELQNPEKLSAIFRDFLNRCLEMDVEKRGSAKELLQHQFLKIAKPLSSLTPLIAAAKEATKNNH

As to `CN1CCN(c2ccc(Nc3ncc4cc(-c5ccc(-c6cccnc6F)cc5Cl)c(=O)n(C)c4n3)cc2)CC1`, the 50% inhibitory concentration (IC50) (as a rule, the point on the concentration scale where inhibition reaches its midpoint) in assay [1] lay within 50 to 500 nM.

Turning to `CCN1CCN(c2ccc(Nc3ncc4cc(-c5ccc(-c6cccnc6)cc5Cl)c(=O)n(CC)c4n3)cc2F)CC1` [drawing 756], the IC50 in assay [1] lay within 50 to 500 nM.

Take `CCn1c(=O)c(-c2ccc(-c3cccnc3C)cc2)cc2cnc(Nc3ccc(C4CCN(C)CC4)cc3)nc21`: the half-inhibitory concentration (IC50) in assay [2] was 500 to 5000 nM; in assay [3], 500 to 5000 nM; in assay [4], 500 to 5000 nM; in assay [5] it was at least 5000 nM.

For the compound `CCn1c(=O)c(-c2ccc(-c3nnco3)cc2Cl)cc2cnc(Nc3ccc(N4CCN(C)CC4)cc3)nc21`, the IC50 in assay [2] is under 50 nM; in assay [3], under 50 nM; in assay [4] it was under 50 nM; in assay [5] it was 500 to 5000 nM.

Turning to `Cc1cc(-c2nccnc2C)ccc1-c1cc2cnc(Nc3ccc(C4CCN(C)CC4)cc3)nc2n(C)c1=O`, the IC50 in assay [2] was under 50 nM; in assay [3], under 50 nM; in assay [4] it was 50 to 500 nM; in assay [5], at least 5000 nM.

With `CCn1c(=O)c(-c2ccc(-c3cccnc3F)cc2Cl)cc2cnc(Nc3ccc(N4CCN(C)CC4)cc3)nc21`, the half-maximal inhibitory concentration (IC50) was under 50 nM in assay [2], under 50 nM in assay [3], under 50 nM in assay [4] and 50 to 500 nM in assay [5].

With `CCn1c(=O)c(-c2ccc(-c3noc(C)n3)cc2Cl)cc2cnc(Nc3ccc(CCN(C)C)cc3)nc21`, the half-maximal inhibitory concentration (IC50) in assay [2] is under 50 nM; in assay [3] it was under 50 nM; in assay [4] it was under 50 nM; in assay [5], 500 to 5000 nM.

For `CCn1c(=O)c(-c2ccc(-c3cnc(C)s3)cc2Cl)cc2cnc(Nc3ccc(C4CCNCC4)cc3)nc21`, the IC50 in assay [2] is under 50 nM; in assay [3] it was under 50 nM; in assay [4] it was under 50 nM; in assay [5], 500 to 5000 nM.

Take `CCn1c(=O)c(-c2ccc(-c3cccnc3C)cc2F)cc2cnc(Nc3ccc(C4CCN(C)CC4)cc3)nc21`: the half-maximal inhibitory concentration (IC50) in assay [2] is 50 to 500 nM; in assay [3], 50 to 500 nM; in assay [4], 50 to 500 nM; in assay [5], at least 5000 nM.

These data come from US20130158043A1, “PAK INHIBITORS FOR THE TREATMENT OF CANCER” (AFRAXIS, INC., priority 2011, published 2013).
